Experimental data published in publication PMC5215716, “A Target-Based Whole Cell Screen Approach To Identify Potential Inhibitors of Mycobacterium tuberculosis Signal Peptidase” (ACS Infectious Diseases, 2016).
In brackets after ≈: the same amount, converted by molar mass.

How the values were obtained:
[1] = tested on: wild-type (wt) M. tuberculosis strain; test: microbe, parasite or virus in culture; assay type: cell-based, Mycobacterium tuberculosis; details: for MIC: Mycobacterium tuberculosis, 120 h, read-out: WT MIC
[2] = tested on: M. tuberculosis strain SPAM13C (LepB-UE); test: microbe, parasite or virus in culture; assay type: cell-based, Mycobacterium tuberculosis; details: for MIC: Mycobacterium tuberculosis, 120 h, read-out: LepB-UE MIC; for MIC / LepB-UE MIC: M. tuberculosis strain SPAM13C, OD590 after 5 days at 37 °C, average ± SD of at least two experiments, b = single value; for Change in potency against LepB-UE compared to compound 1: decrease in potency relative to compound 1
in vitro = assay type: cell-based, African green monkey; details: African green monkey
Description: Cytotoxicity against African green monkey adult kidney cell (Vero cells) was determined as previously described using CellTiter-Glo reagent.[44] The concentration causing 50% growth inhibition (IC50) was calculated by fitting the inhibition curves using the Levenberg–Marquardt algorithm.

LepB = target: T1, LepB (Mycobacterium tuberculosis, UniProt P9WKA1); test: LepB membrane assay (fluorogenic signal peptide cleavage by cell membrane fraction); assay type: biochemical; details: M. tuberculosis H37Rv cell membrane fraction, 2 μM peptide substrate, 4 h at 37 °C
T1 construct: we used purified membrane fractions to develop an in vitro assay for signal peptide cleavage; host or cells: γ-irradiated whole M. tuberculosis H37Rv; Triton X-114 membrane fraction
T1 sequence (P9WKA1 1-294): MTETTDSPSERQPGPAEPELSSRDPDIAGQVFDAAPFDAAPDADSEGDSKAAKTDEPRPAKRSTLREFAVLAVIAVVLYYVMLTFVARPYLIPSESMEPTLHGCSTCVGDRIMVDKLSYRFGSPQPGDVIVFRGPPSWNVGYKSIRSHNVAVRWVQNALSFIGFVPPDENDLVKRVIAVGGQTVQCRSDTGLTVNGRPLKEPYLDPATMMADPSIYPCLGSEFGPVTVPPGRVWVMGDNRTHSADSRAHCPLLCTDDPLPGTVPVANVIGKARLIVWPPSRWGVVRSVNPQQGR

[3] = […], OD590 after 5 days at 37 °C, average ± SD of at least two experiments, b = single value

Compound | MIC [1, 3] [µM] | MIC [2] [µM] | CC50 (in vitro) [µM] | IC50 (LepB) [µM] | WT MIC [1, 3] [µM] | LepB-UE MIC [2] [µM] | Increase in potency against wt compared to 16 ([1]; relative to compound 16) [fold] | Change in potency against LepB-UE compared to compound 1 [2]
C/C(=N\Nc1nc(C)cc(C)n1)c1ccccn1 [Compound 1] | 18 ± 1 (≈ 4.34 µg/mL) | 3 ± 1.1 (≈ 0.724 µg/mL) | 2.3 | 39 |  |  |  | 
Oc1ccccc1/C=N/Nc1nc(-c2ccccc2)cs1 [Compound 2] | 43 ± 26 (≈ 12.7 µg/mL) | 9.3 ± 3.2 (≈ 2.75 µg/mL) | 13 | > 200 |  |  |  | 
O=[N+]([O-])c1ccc(O)c(/C=N/Nc2ccccn2)c1 [Compound 3] | 11 (≈ 2.84 µg/mL) | 4.7 (≈ 1.21 µg/mL) | 2.9 | 12 |  |  |  | 
Cc1cnn(-c2cc(N/N=C/c3ccccc3O)ncn2)c1 [Compound 4] | 10 ± 7 (≈ 2.94 µg/mL) | 4.5 ± 2.5 (≈ 1.32 µg/mL) | 9.2 | > 200 |  |  |  | 
Cc1ccc2cc(C)c(N/N=C/c3cc(Br)ccc3O)nc2c1 [Compound 5] | > 200 | 7.4 ± 3.4 (≈ 2.74 µg/mL) | 5 | > 200 |  |  |  | 
Cc1nc2ccccc2nc1N/N=C/c1ccc(O)c(C)c1O [Compound 6] | 26 ± 12 (≈ 8.02 µg/mL) | 3.8 ± 1.3 (≈ 1.17 µg/mL) | 8.7 | > 200 |  |  |  | 
Cc1nc2ccccc2nc1N/N=C/c1c(O)ccc2ccccc12 [Compound 7] | 14 ± 3 (≈ 4.6 µg/mL) | 3.9 ± 1.7 (≈ 1.28 µg/mL) | 5.2 | 130 |  |  |  | 
Oc1ccc(/C=N/Nc2ccc3ccccc3n2)c(O)c1 [Compound 8] | > 200 | 3.6 ± 1.1 (≈ 1.01 µg/mL) | 6.7 | > 200 |  |  |  | 
Cc1ccc(Nc2nc(N/N=C/c3ccccc3O)nc(N3CCOCC3)n2)c(Br)c1 [Compound 9] | 57 ± 24 (≈ 27.6 µg/mL) | 11 ± 1 (≈ 5.33 µg/mL) | 13 | > 200 |  |  |  | 
COc1ccc(Nc2nc(NCc3ccco3)nc(N/N=C/c3ccccc3O)n2)cc1 [Compound 10] | > 200 | 5.4 ± 2.6 (≈ 2.33 µg/mL) | 4.3 | > 200 |  |  |  | 
C/C(=N\NC(=O)c1ccc(N2CCCC2=O)cc1)c1ccccn1 [Compound 11] | < 10 | 3.5 to 15 (≈ 1.13 to 4.84 µg/mL) | 6.1 | 26 | 14 ± 7 | 3.5 ± 1.8 |  | 
O=C(N/N=C/c1cccc2cccnc12)c1ccn(Cc2ccc(Cl)cc2)n1 [Compound 12] | 22 ± 2 (≈ 8.58 µg/mL) | 3.5 to 15 (≈ 1.36 to 5.85 µg/mL) | 34 | > 200 |  | 6.3 ± 3.5 |  | 
O=C(N/N=C/c1cccc2cccnc12)c1ccn(Cc2ccc(Cl)cc2Cl)n1 [Compound 13] | 18 ± 5 (≈ 7.64 µg/mL) | 3.5 to 15 (≈ 1.49 to 6.36 µg/mL) | 21 | > 200 |  | 4.7 ± 0.6 |  | 
CCOC(=O)CN1C(=O)/C(=N\NC(=O)c2ccccn2)c2ccccc21 [Compound 14] | > 200 | 3.5 to 15 (≈ 1.23 to 5.29 µg/mL) | 32 | > 200 |  | 4.9 ± 1.9 |  | 
Cc1ccc(-c2cc(C(=O)N/N=C/c3ccccn3)[nH]n2)cc1 [Compound 15] | > 200 |  | 63 | > 200 |  | 15 ± 2.5 |  | 
N=C(N/N=C/c1cc([N+](=O)[O-])ccc1O)c1ccccn1 [Compound 16] | > 200 | 10 ± 3.4 (≈ 2.85 µg/mL) | > 100 | 119 |  |  |  | 
N=C(N/N=C/c1ccccc1O)c1ccccn1 [Compound 17] |  | 6.7 ± 1.6 (≈ 1.61 µg/mL) | > 100 |  |  |  | ~4 | 
C/C(=N\NC(=S)Nc1cccc(C)c1)c1ccccc1O [Compound 18] | 18 ± 12 (≈ 5.39 µg/mL) | 9 ± 5.8 (≈ 2.69 µg/mL) | 11 |  |  |  |  | 
CSC(=S)N/N=C(\c1ccccc1)c1ccccn1 [Compound 19] | 10 ± 3 (≈ 2.87 µg/mL) | 6 ± 4.2 (≈ 1.72 µg/mL) | 2.4 |  |  |  |  | 
C/C(=N\Nc1nc(C)cc(C)n1)c1ccco1 [Compound 20] | > 200 |  | > 100 | 74 |  |  |  | at least 10 fold
C/C(=N\Nc1nc(C)cc(C)n1)c1cccs1 [Compound 21] | > 200 |  | > 100 | 120 |  |  |  | at least 10 fold
C/C(=N\Nc1nc(C)cc(C)n1)c1ccccc1 [Compound 22] | > 200 |  | > 100 | > 200 |  |  |  | at least 10 fold
C/C(=N\Nc1nc(C)cc(C)n1)c1cccc(O)c1 [Compound 23] | 115 (≈ 29.5 µg/mL) | 30 to 90 (≈ 7.69 to 23.1 µg/mL) | > 100 | 140 |  | 54 ± 2 |  | at least 10 fold
